The record followed here is the supplement of paper PMC8967900.
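Further: ALL cell lines in 384-well plates, five doses spanning 10,000-fold, each plate scaled between vehicle and 100 µmol/L benzalkonium chloride controls, sDSS an adapted area-under-curve metric.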

The test system of the first test is MHH-CALL-2. The test is described as follows: selective drug sensitivity score (sDSS, relative to normal bone marrow) (sDSS (score)); higher = more potent and effective on the cell line relative to normal bone marrow cells. To be noted: 72 h.
As for `C1=N/C2=N/c3ccc(OCCN4CCCC4)c(c3)COC/C=C/COCc3cccc(c3)C(=C1)N2` [Pacritinib] (top concentration 10000 nM), the “selective drug sensitivity score” value was -7.9.

Regarding `Cc1[nH]c2ccccc2c1CCNCc1ccc(/C=C/C(=O)NO)cc1` [Panobinostat] (top concentration 1000 nM), the “selective drug sensitivity score” value worked out at 8.44.

Regarding `Cc1ccc(Nc2nccc(N(C)c3ccc4c(C)n(C)nc4c3)n2)cc1S(N)(=O)=O` [Pazopanib] (top concentration 10000 nM), the “selective drug sensitivity score” value came out at 6.24.

`Nc1nc2[nH]cc(CCc3ccc(C(=O)N[C@@H](CCC(=O)O)C(=O)O)cc3)c2c(=O)[nH]1` [Pemetrexed] (top concentration 10000 nM): the “selective drug sensitivity score” value was 18.7.

As for `Cc1ccc(C(=O)Nc2ccc(CN3CCN(C)CC3)c(C(F)(F)F)c2)cc1C#Cc1cnc2cccnn12` [Ponatinib] (top concentration 1000 nM), the “selective drug sensitivity score” value is 5.92.

On to `C[C@]12C=CC(=O)C=C1CC[C@@H]1[C@@H]2[C@@H](O)C[C@@]2(C)[C@H]1CC[C@]2(O)C(=O)CO` [Prednisolone] (top concentration 10000 nM), for which the “selective drug sensitivity score” value came out at 23.1.

`CC(C)(C)c1cc(NC(=O)Nc2ccc(-c3cn4c(n3)sc3cc(OCCN5CCOCC5)ccc34)cc2)no1` [Quizartinib] (top concentration 1000 nM): the “selective drug sensitivity score” value stood at 2.38.

With `Nc1cc(F)ccc1NC(=O)/C=C/c1cnn(C/C=C/c2ccccc2)c1` [RGFP966] (top concentration 10000 nM), the “selective drug sensitivity score” value amounted to 7.84.

For `CNC(=O)c1cc(Oc2ccc(NC(=O)Nc3ccc(Cl)c(C(F)(F)F)c3)c(F)c2)ccn1` [Regorafenib] (top concentration 10000 nM), the “selective drug sensitivity score” value is 1.64.

In the case of `CN(C)Cc1ccc(S(=O)(=O)n2ccc(/C=C/C(=O)NO)c2)cc1` [Resminostat] (top concentration 10000 nM), the “selective drug sensitivity score” value amounted to 8.14.

As for `COc1cc(OC)c(/C=C/S(=O)(=O)Cc2ccc(OC)c(NCC(=O)O)c2)c(OC)c1` [Rigosertib] (top concentration 10000 nM), the “selective drug sensitivity score” value was 15.2.

On to `COc1ccc(CCc2nc3cc(-c4c(C)noc4C)ccc3n2C[C@H](C)N2CCOCC2)cc1Cl` [SGC-CBP30] (top concentration 25000 nM), for which the “selective drug sensitivity score” value was determined as 5.88.

For `CCS(=O)(=O)c1cccc(-c2cc(C(=O)NC3CCN(C)CC3)c(C)c3[nH]c4ncc(C)cc4c23)c1` [TAK-901] (top concentration 1000 nM), the “selective drug sensitivity score” value turned out to be 7.26.

For the molecule `Nc1nc(NC2CC2)cc(-c2cccc(Cl)c2Cl)n1` [TH588] (top concentration 25000 nM), the “selective drug sensitivity score” value is -0.58.

On to `CC(=O)Nc1ccc(C(=O)Nc2ccccc2N)cc1` [Tacedinaline] (top concentration 1000 nM), for which the “selective drug sensitivity score” value is 7.68.

Take `Cn1ncnc1[C@H]1c2n[nH]c(=O)c3cc(F)cc(c23)N[C@@H]1c1ccc(F)cc1` [Talazoparib] (top concentration 1000 nM): the “selective drug sensitivity score” value was found to be 9.48.

For `COc1cccc2c1c(O)c(C(=O)N(C)c1ccc(C(F)(F)F)cc1)c(=O)n2C` [Tasquinimod] (top concentration 10000 nM), the “selective drug sensitivity score” value is 0.88.

Turning to `Nc1nc2[nH]cnc2c(=S)[nH]1` [Thioguanine] (top concentration 10000 nM), the “selective drug sensitivity score” value is 11.9.

A further test concerns KASUMI-10. The test is described as above. To be noted: 72 h.
Consider `C1=N/C2=N/c3ccc(OCCN4CCCC4)c(c3)COC/C=C/COCc3cccc(c3)C(=C1)N2` [Pacritinib] (top concentration 10000 nM), for which the “selective drug sensitivity score” value stood at 2.2.

Turning to `Cc1[nH]c2ccccc2c1CCNCc1ccc(/C=C/C(=O)NO)cc1` [Panobinostat] (top concentration 1000 nM), the “selective drug sensitivity score” value came to 7.74.

As to `Cc1ccc(Nc2nccc(N(C)c3ccc4c(C)n(C)nc4c3)n2)cc1S(N)(=O)=O` [Pazopanib] (top concentration 10000 nM), the “selective drug sensitivity score” value was determined as 2.24.

For `Nc1nc2[nH]cc(CCc3ccc(C(=O)N[C@@H](CCC(=O)O)C(=O)O)cc3)c2c(=O)[nH]1` [Pemetrexed] (top concentration 10000 nM), the “selective drug sensitivity score” value turned out to be 19.1.

Regarding `Cc1ccc(C(=O)Nc2ccc(CN3CCN(C)CC3)c(C(F)(F)F)c2)cc1C#Cc1cnc2cccnn12` [Ponatinib] (top concentration 1000 nM), the “selective drug sensitivity score” value came out at 16.

Regarding `C[C@]12C=CC(=O)C=C1CC[C@@H]1[C@@H]2[C@@H](O)C[C@@]2(C)[C@H]1CC[C@]2(O)C(=O)CO` [Prednisolone] (top concentration 10000 nM), the “selective drug sensitivity score” value was -3.

For the molecule `CC(C)(C)c1cc(NC(=O)Nc2ccc(-c3cn4c(n3)sc3cc(OCCN5CCOCC5)ccc34)cc2)no1` [Quizartinib] (top concentration 1000 nM), the “selective drug sensitivity score” value came out at 17.8.

As for `Nc1cc(F)ccc1NC(=O)/C=C/c1cnn(C/C=C/c2ccccc2)c1` [RGFP966] (top concentration 10000 nM), the “selective drug sensitivity score” value turned out to be 9.44.

On to `CNC(=O)c1cc(Oc2ccc(NC(=O)Nc3ccc(Cl)c(C(F)(F)F)c3)c(F)c2)ccn1` [Regorafenib] (top concentration 10000 nM), for which the “selective drug sensitivity score” value turned out to be 7.34.

Regarding `CN(C)Cc1ccc(S(=O)(=O)n2ccc(/C=C/C(=O)NO)c2)cc1` [Resminostat] (top concentration 10000 nM), the “selective drug sensitivity score” value stood at 5.94.

On to `COc1cc(OC)c(/C=C/S(=O)(=O)Cc2ccc(OC)c(NCC(=O)O)c2)c(OC)c1` [Rigosertib] (top concentration 10000 nM), for which the “selective drug sensitivity score” value amounted to 12.

Turning to `COc1ccc(CCc2nc3cc(-c4c(C)noc4C)ccc3n2C[C@H](C)N2CCOCC2)cc1Cl` [SGC-CBP30] (top concentration 25000 nM), the “selective drug sensitivity score” value came to 4.78.

Take `CCS(=O)(=O)c1cccc(-c2cc(C(=O)NC3CCN(C)CC3)c(C)c3[nH]c4ncc(C)cc4c23)c1` [TAK-901] (top concentration 1000 nM): the “selective drug sensitivity score” value came to 9.76.

Take `Nc1nc(NC2CC2)cc(-c2cccc(Cl)c2Cl)n1` [TH588] (top concentration 25000 nM): the “selective drug sensitivity score” value is 6.22.

Consider `CC(=O)Nc1ccc(C(=O)Nc2ccccc2N)cc1` [Tacedinaline] (top concentration 1000 nM), for which the “selective drug sensitivity score” value is 0.98.

As to `Cn1ncnc1[C@H]1c2n[nH]c(=O)c3cc(F)cc(c23)N[C@@H]1c1ccc(F)cc1` [Talazoparib] (top concentration 1000 nM), the “selective drug sensitivity score” value amounted to 3.38.

`COc1cccc2c1c(O)c(C(=O)N(C)c1ccc(C(F)(F)F)cc1)c(=O)n2C` [Tasquinimod] (top concentration 10000 nM): the “selective drug sensitivity score” value was -0.42.

As to `Nc1nc2[nH]cnc2c(=S)[nH]1` [Thioguanine] (top concentration 10000 nM), the “selective drug sensitivity score” value worked out at 5.24.

The next test deals with CCRF-HSB2. The description is as above. The settings on record: 72 h.
`C1=N/C2=N/c3ccc(OCCN4CCCC4)c(c3)COC/C=C/COCc3cccc(c3)C(=C1)N2` [Pacritinib] (top concentration 10000 nM): the “selective drug sensitivity score” value was -3.5.

For `Cc1[nH]c2ccccc2c1CCNCc1ccc(/C=C/C(=O)NO)cc1` [Panobinostat] (top concentration 1000 nM), the “selective drug sensitivity score” value is 5.24.

For `Cc1ccc(Nc2nccc(N(C)c3ccc4c(C)n(C)nc4c3)n2)cc1S(N)(=O)=O` [Pazopanib] (top concentration 10000 nM), the “selective drug sensitivity score” value stood at 4.34.

Consider `Nc1nc2[nH]cc(CCc3ccc(C(=O)N[C@@H](CCC(=O)O)C(=O)O)cc3)c2c(=O)[nH]1` [Pemetrexed] (top concentration 10000 nM), for which the “selective drug sensitivity score” value came to 28.2.

On to `Cc1ccc(C(=O)Nc2ccc(CN3CCN(C)CC3)c(C(F)(F)F)c2)cc1C#Cc1cnc2cccnn12` [Ponatinib] (top concentration 1000 nM), for which the “selective drug sensitivity score” value was determined as 34.4.

As for `C[C@]12C=CC(=O)C=C1CC[C@@H]1[C@@H]2[C@@H](O)C[C@@]2(C)[C@H]1CC[C@]2(O)C(=O)CO` [Prednisolone] (top concentration 10000 nM), the “selective drug sensitivity score” value stood at 9.3.

With `CC(C)(C)c1cc(NC(=O)Nc2ccc(-c3cn4c(n3)sc3cc(OCCN5CCOCC5)ccc34)cc2)no1` [Quizartinib] (top concentration 1000 nM), the “selective drug sensitivity score” value was -0.12.

As to `Nc1cc(F)ccc1NC(=O)/C=C/c1cnn(C/C=C/c2ccccc2)c1` [RGFP966] (top concentration 10000 nM), the “selective drug sensitivity score” value came to 15.9.

In the case of `CNC(=O)c1cc(Oc2ccc(NC(=O)Nc3ccc(Cl)c(C(F)(F)F)c3)c(F)c2)ccn1` [Regorafenib] (top concentration 10000 nM), the “selective drug sensitivity score” value amounted to 6.14.
